The results in this text go back to ChEMBL document CHEMBL3046126, “Synthesis and Herbicidal Activity of New Oxazolidinedione Derivatives” (J Pestic Sci, 1999).

The test system of data set [1] is Zea mays. Description: Pre-emergence phytotoxicity against Zea mays (maize) assessed as phytotoxic crop injury visual ratings at 500 g ai/ha measured after 14 days post treatment under upland field conditions. Format: organism-based. The following applies: in vivo, other, 336 h.
For data set [2], the system named is Chenopodium album. Description: Pre-emergence herbicidal activity against Chenopodium album assessed as phytotoxic weed control visual ratings at 500 g ai/ha measured after 14 days post treatment under upland field conditions. Format: functional.
The test system of data set [3] is Amaranthus viridis. Description: Pre-emergence herbicidal activity against Amaranthus viridis assessed as phytotoxic weed control visual ratings at 500 g ai/ha measured after 14 days post treatment under upland field conditions. In kind it is functional.
Data set [4] concerns Digitaria ciliaris. Description: Pre-emergence herbicidal activity against Digitaria ciliaris assessed as phytotoxic weed control visual ratings at 500 g ai/ha measured after 14 days post treatment under upland field conditions. Format: functional.
The test system of data set [5] is Echinochloa crus-galli. Description: Pre-emergence herbicidal activity against Echinochloa crus-galli (barnyard grass) assessed as phytotoxic weed control visual ratings at 500 g ai/ha measured after 14 days post treatment under upland field conditions. In kind it is functional.
The subject of data set [6] is Schoenoplectiella juncoides. Put plainly: Pre-emergence herbicidal activity against Schoenoplectiella juncoides assessed as phytotoxic weed control visual ratings at 25 g ai/ha measured after 14 days post treatment under flooded conditions. Format: functional.
Data set [7] relates to Oryza sativa. Put plainly: Pre-emergence phytotoxicity against Oryza sativa cv. Koshihikari (rice) assessed as phytotoxic crop injury visual ratings at 25 g ai/ha measured after 14 days post treatment under flooded conditions. In kind it is organism-based. Particulars: in vivo, other, 336 h.
Data set [8] concerns Pontederia vaginalis. Description: Pre-emergence herbicidal activity against Monochoria vaginalis assessed as phytotoxic weed control visual ratings at 25 g ai/ha measured after 14 days post treatment under flooded conditions. Format: functional.
Data set [9] relates to Lindernia procumbens. Put plainly: Pre-emergence herbicidal activity against Lindernia procumbens assessed as phytotoxic weed control visual ratings at 25 g ai/ha measured after 14 days post treatment under flooded conditions. In kind it is functional.
For data set [10], the system named is Cyperus difformis. Put plainly: Pre-emergence herbicidal activity against Cyperus difformis assessed as phytotoxic weed control visual ratings at 25 g ai/ha measured after 14 days post treatment under flooded conditions. Format: functional.
The test system of data set [11] is Echinochloa oryzicola. Put plainly: Pre-emergence herbicidal activity against Echinochloa oryzicola assessed as phytotoxic weed control visual ratings at 25 g ai/ha measured after 14 days post treatment under flooded conditions. Format: functional.
For data set [12], the system named is Rotala indica. Put plainly: Pre-emergence herbicidal activity against Rotala indica assessed as phytotoxic weed control visual ratings at 25 g ai/ha measured after 14 days post treatment under flooded conditions. In kind it is functional.
The subject of data set [13] is Elatine triandra. Description: Pre-emergence herbicidal activity against Elatine triandra assessed as phytotoxic weed control visual ratings at 25 g ai/ha measured after 14 days post treatment under flooded conditions. In kind it is functional.
The nature of data set [14]: Selectivity index, ratio of ED10 for Oryza sativa to ED90 for Echinochloa oryzicola by pre-emergence exposure method.
A short description of data set [15]: Selectivity index, ratio of ED10 for Oryza sativa to ED90 for Echinochloa oryzicola by post-emergence exposure method.
Data set [16] has as its system Echinochloa oryzicola. Put plainly: Post-emergence herbicidal activity against Echinochloa oryzicola assessed as phytotoxic weed control visual ratings measured after 14 days post treatment. Format: functional.
The subject of data set [17] is Echinochloa oryzicola. Description: Pre-emergence herbicidal activity against Echinochloa oryzicola assessed as phytotoxic weed control visual ratings measured after 14 days post treatment. Format: functional.
Data set [18] concerns Oryza sativa. Put plainly: Pre-emergence phytotoxicity against Oryza sativa cv. Koshihikari (rice) assessed as phytotoxic crop injury visual ratings measured after 14 days post treatment. Format: organism-based. Particulars: in vivo, 336 h.
Data set [19] has as its system Oryza sativa. Put plainly: Post-emergence phytotoxicity against Oryza sativa cv. Koshihikari (rice) assessed as phytotoxic crop injury visual ratings measured after 14 days post treatment. Format: organism-based. Particulars: in vivo, 336 h.
The subject of data set [20] is Elatine triandra. Description: Pre-emergence herbicidal activity against Elatine triandra assessed as phytotoxic weed control visual ratings at 1.25 kg ai/ha measured after 14 days post treatment under flooded conditions. Format: functional.
Data set [21] concerns Rotala indica. Put plainly: Pre-emergence herbicidal activity against Rotala indica assessed as phytotoxic weed control visual ratings at 1.25 kg ai/ha measured after 14 days post treatment under flooded conditions. In kind it is functional.
Data set [22] concerns Cyperus difformis. Put plainly: Pre-emergence herbicidal activity against Cyperus difformis assessed as phytotoxic weed control visual ratings at 1.25 kg ai/ha measured after 14 days post treatment under flooded conditions. Format: functional.
For data set [23], the system named is Echinochloa oryzicola. Put plainly: Pre-emergence herbicidal activity against Echinochloa oryzicola assessed as phytotoxic weed control visual ratings at 1.25 kg ai/ha measured after 14 days post treatment under flooded conditions. In kind it is functional.
Data set [24] has as its system Oryza sativa. Put plainly: Pre-emergence phytotoxicity against Oryza sativa cv. Koshihikari (rice) assessed as phytotoxic crop injury visual ratings at 1.25 kg ai/ha measured after 14 days post treatment under flooded conditions. Particulars: in vivo, other, 336 h. Format: organism-based.
Data set [25] relates to Schoenoplectiella juncoides. Description: Pre-emergence herbicidal activity against Schoenoplectiella juncoides assessed as phytotoxic weed control visual ratings at 1.25 kg ai/ha measured after 14 days post treatment under flooded conditions. Format: functional.
Data set [26] has as its system Pontederia vaginalis. Description: Pre-emergence herbicidal activity against Monochoria vaginalis assessed as phytotoxic weed control visual ratings at 1.25 kg ai/ha measured after 14 days post treatment under flooded conditions. Format: functional.
Data set [27] relates to Lindernia procumbens. Description: Pre-emergence herbicidal activity against Lindernia procumbens assessed as phytotoxic weed control visual ratings at 1.25 kg ai/ha measured after 14 days post treatment under flooded conditions. Format: functional.

As for `CC(C)Oc1cc(-n2nc(C(C)(C)C)oc2=O)c(Cl)cc1Cl` [OXADIAZON], the Phytotoxicity in data set [1] turned out to be 40%; in data set [2], 100%; in [3], 100%; in data set [4], 100%; in [5], 100%; in [6], 100%. In addition, the Phytotoxicity was 0% in data set [7]; 100% in [8]; 100% in data set [9]; 100% in data set [10]; 90% in data set [11]; 100% in [12]. For the same compound, the Phytotoxicity in data set [13] is on record as 100%. Besides, the Selectivity Index in data set [14] and in data set [15] was 8 in each case. Also, the ED90 in data set [16] was determined as 50 gAi/ha; in [17], 25 gAi/ha. Also, the ED10 came out at 200 gAi/ha in data set [18] and 400 gAi/ha in data set [19].
`CCCCCC/C(C)=C1/OC(=O)N(c2ccc(Cl)cc2)C1=O`: the Phytotoxicity in data set [20] turned out to be 4%; in data set [21], 4%; in data set [22], 80%; in data set [23], 10%; in [24] it was 0%; in data set [25], 10%. In addition, the figures for the Phytotoxicity in data set [26] and in [27] were 50% and 4%, respectively.
For `CC(C)=C1OC(=O)N(c2cc(OC3CCCC3)c(Cl)cc2F)C1=O` [PENTOXAZONE], the Phytotoxicity in [1] was found to be 10%; in [2], 50%; in [3], 100%; in data set [4], 90%; in data set [5] it was 60%; in data set [6], 100%. The Phytotoxicity was 0% in [7]; 100% in data set [8]; 100% in data set [9]; 100% in data set [10]; 100% in [11]; 100% in data set [12]. Moreover, the Phytotoxicity in data set [13] was 100%. Further, the Selectivity Index in data set [14] and in data set [15] was 16 in each case. Moreover, the ED90 in data set [16] turned out to be 25 gAi/ha; in data set [17], 12.5 gAi/ha. Moreover, the ED10 in data set [18] is given as 200 gAi/ha; in data set [19], 400 gAi/ha.
Turning to `C=CCOc1cc(N2C(=O)OC(=C(C)C)C2=O)c(F)cc1Cl`, the Phytotoxicity in [1] is 10%; in data set [2] it was 70%; in data set [3], 80%; in data set [4], 90%; in data set [5] it was 30%; in data set [6], 90%. For the same compound, the Phytotoxicity in data set [7] was 0%; in [8], 100%; in data set [9] it was 100%; in data set [10], 100%; in [11], 80%; in data set [12], 100%. For the same compound, in data set [13], the Phytotoxicity turned out to be 100%. Further, the Selectivity Index in data set [14] and in [15] was 1 each time. The results for the ED90 in [16] and in data set [17] were 100 gAi/ha and 50 gAi/ha, respectively. The ED10 in data set [18] was 50 gAi/ha; in data set [19], 100 gAi/ha.
`CCC(CC)=C1OC(=O)N(c2ccc(Cl)cc2)C1=O`: the Phytotoxicity came out at 100% in data set [20]; 100% in data set [21]; 100% in [22]; 10% in data set [23]; 0% in [24]; 30% in data set [25]. Besides, the values for the Phytotoxicity in data set [26] and in data set [27] were 90% and 100%, respectively.
In the case of `CC(C)=C1OC(=O)N(c2cc(OC(C)C)c(Cl)cc2F)C1=O`, the Phytotoxicity in [1] is listed as 10%; in data set [2], 100%; in data set [3] it was 100%; in [4] it was 100%; in [5], 90%; in [6], 90%. For the same compound, the Phytotoxicity in data set [7] is reported as 0%; in [8] it was 100%; in [9], 100%; in [10], 100%; in data set [11], 100%; in data set [12], 100%. For the same compound, the Phytotoxicity in data set [13] is 100%. Besides, the values for the Selectivity Index in data set [14] and in [15] were 4 and 6, respectively. In addition, the ED90 in data set [16] and in data set [17] was 25 gAi/ha each time. In addition, the ED10 in data set [18] was 100 gAi/ha; in [19] it was 150 gAi/ha.
For `CC/C(C)=C1/OC(=O)N(c2ccc(Cl)cc2)C1=O`, the Phytotoxicity in data set [20] was 100%; in data set [21], 100%; in data set [22] it was 100%; in data set [23], 100%; in [24], 20%; in [25], 100%. The Phytotoxicity in data set [26] and in [27] was 100% in each case.
In the case of `CC(C)=C1OC(=O)N(c2cc(OC3CCCCC3)c(Cl)cc2F)C1=O`, the Phytotoxicity in data set [1] is 10%; in data set [2], 20%; in [3] it was 30%; in [4], 30%; in data set [5], 10%; in data set [6] it was 80%. Also, the Phytotoxicity turned out to be 0% in [7]; 100% in data set [8]; 100% in [9]; 100% in data set [10]; 100% in data set [11]; 100% in data set [12]. Besides, the Phytotoxicity in [13] was 100%. Besides, the Selectivity Index in [14] and in [15] was 8 in each case. In addition, the ED90 in data set [16] and in [17] was 25 gAi/ha each time. For the same compound, the ED10 in [18] and in [19] was 200 gAi/ha each time.
With `CC(C)=C1OC(=O)N(c2ccc(F)cc2)C1=O`, the Phytotoxicity was found to be 40% in data set [20]; 40% in data set [21]; 100% in [22]; 10% in data set [23]; 0% in [24]; 0% in data set [25]. Moreover, the Phytotoxicity in data set [26] and in data set [27] was 40% in each case.
For `CCCC/C(C)=C1/OC(=O)N(c2ccc(Cl)cc2)C1=O`, the Phytotoxicity in [20] came to 100%; in data set [21], 100%; in data set [22], 100%; in data set [23] it was 40%; in [24] it was 10%; in data set [25] it was 100%. The Phytotoxicity in [26] and in data set [27] was 100% each time.
As for `O=C1OC(=C2CCCCC2)C(=O)N1c1ccc(Cl)cc1`, the Phytotoxicity was 100% in data set [20]; 100% in data set [21]; 100% in data set [22]; 10% in [23]; 0% in [24]; 80% in [25]. For the same compound, the Phytotoxicity in data set [26] came out at 10%; in [27], 100%.
